From patent US11000033B2, “Ketone or oxime compound, and herbicide” (NISSAN CHEMICAL CORPORATION, priority 2014, dated 2021)

Key:
Format in all cases: in vivo
Monochoria vaginalis = assay: Test Example 1: herbicidal activity, application before weed generation in submerged conditions (symbol C); conditions: application herbicide amount 320 g/ha
Summary of the method: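 Application before weed emergence: an aqueous dilution of the emulsion formulation was poured onto the surface of 4 cm-deep floodwater on the day of sowing. Effect was judged after 3 weeks (greenhouse, 25–30 °C).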

[1] = tested on: Echinochloa oryzacola Vasing.; assay: Test Example 2: herbicidal activity, application during weed generation in submerged conditions (symbol A); conditions: Table 23; application herbicide amount 320 g/ha; grade 0-5 by criteria of Test Example 1
Summary of the method: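 Each pot contained alluvial soil under 4 cm of water with seeds of all three weeds sown together. Following growth at 25° C. to 30° C. to the one- to two-leaf stage, the floodwater received diluted emulsion at a predetermined amount; visual assessment followed at 3 weeks.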

Leptochloa chinensis = assay: Test Example 3: herbicidal effect by foliage application, Wagner pot (symbol D); conditions: application herbicide amount 320 g/ha
Summary of the method: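 Seeds sown in alluvial soil kept under 0.1–0.5 cm water, greenhouse 25–30 °C; 14 d growth. Leaves treated by small sprayer with water-diluted emulsion at a predetermined rate. Effect graded by set scale, 3 weeks.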

Digitaria ciliaris = assay: Test Example 4: herbicidal effect by soil treatment (symbol F)
Summary of the method: (§1)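 Seeds were sown in sterilized diluvial soil, covered with about 1.5 cm of soil, and the soil surface was sprayed with a water-diluted emulsion of the compound at a predetermined rate. Plants grew in a greenhouse at 25° C. to 30° C.; effects were scored visually 3 weeks after application.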

Setaria viridis = assay: Test Example 4: herbicidal effect by soil treatment (symbol G)
Summary of the method: as §1

Chenopodium album [2] = assay: Test Example 4: herbicidal effect by soil treatment (symbol O)
Summary of the method: as §1

Apera spica-venti = assay: Test Example 5: herbicidal effect by foliage application, plastic box (symbol L); conditions: 320 g/ha, 3 weeks after application
Summary of the method: (§2)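 Leaf-applied emulsion, water-diluted to a preset herbicide dose, on two-week-old seedlings raised in a 25° C. to 30° C. greenhouse; injury rated at 3 weeks using earlier criteria.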

Abutilon theophrasti = assay: Test Example 5: herbicidal effect by foliage application, plastic box (symbol M); conditions: 320 g/ha, 3 weeks after application
Summary of the method: as §2

Amaranthus retroflexus = assay: Test Example 5: herbicidal effect by foliage application, plastic box (symbol N); conditions: 320 g/ha, 3 weeks after application
Summary of the method: as §2

Chenopodium album [3] = assay: Test Example 5: herbicidal effect by foliage application, plastic box (symbol O); conditions: 320 g/ha, 3 weeks after application
Summary of the method: as §2

Galium spurium = assay: Test Example 5: herbicidal effect by foliage application, plastic box (symbol Q); conditions: 320 g/ha, 3 weeks after application
Summary of the method: as §2

corn = assay: Test Example 5: effect on crop by foliage application, plastic box (symbol c); conditions: 320 g/ha, 3 weeks after application
Summary of the method: (§3)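 A greenhouse held between 25° C. and 30° C. was used to grow plants sown spot-wise, beneath ~1.5 cm of soil, in boxes of sterilized diluvial soil.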

soybean = assay: Test Example 5: effect on crop by foliage application, plastic box (symbol d); conditions: 320 g/ha, 3 weeks after application
Summary of the method: as §3

beet = assay: Test Example 5: effect on crop by foliage application, plastic box (symbol f); conditions: 320 g/ha, 3 weeks after application
Summary of the method: as §3

rapeseed = assay: Test Example 5: effect on crop by foliage application, plastic box (symbol g); conditions: 320 g/ha, 3 weeks after application
Summary of the method: as §3

[4] = application herbicide amount 320 g/ha

Row | SMILES | Herbicidal effect grade, C: Monochoria vaginalis (Monochoria vaginalis) | Herbicidal effect grade, A: Echinochloa oryzacola Vasing. [1] | herbicidal effect on D (Leptochloa chinensis), grade 0-5 (Leptochloa chinensis) | F: Digitaria ciliaris, herbicidal effect grade (Digitaria ciliaris; 320 g/ha) | G: Setaria viridis, herbicidal effect grade (Setaria viridis; 320 g/ha) | O: Chenopodium album, herbicidal effect grade (Chenopodium album [2]; 320 g/ha) | L: Apera spica-venti, herbicidal effect grade (Apera spica-venti) | M: Abutilon theophrasti, herbicidal effect grade (Abutilon theophrasti) | N: Amaranthus retroflexus, herbicidal effect grade (Amaranthus retroflexus) | O: Chenopodium album, herbicidal effect grade (Chenopodium album [3]) | Q: Galium spurium, herbicidal effect grade (Galium spurium) | c: corn, effect on crop grade (corn) | d: soybean, effect on crop grade (soybean) | f: beet, effect on crop grade (beet) | g: rapeseed, effect on crop grade (rapeseed) | L: Apera spica-venti, herbicidal effect (criteria 0-5) (Apera spica-venti) | M: Abutilon theophrasti, herbicidal effect (criteria 0-5) (Abutilon theophrasti) | N: Amaranthus retroflexus, herbicidal effect (criteria 0-5) (Amaranthus retroflexus) | O: Chenopodium album, herbicidal effect (criteria 0-5) (Chenopodium album [3]) | Q: Galium spurium, herbicidal effect (criteria 0-5) (Galium spurium) | further results
1 | CON=C(C)CC1CC(OC(=O)N(C)c2ccccc2)=C(c2c(C)cc(C)cc2C)C1=O (centres unmarked) [1-159] | 0 (Herbicidal ratio of 5% or lower (almost no effect)) | 4 (Herbicidal ratio of 70% or higher and lower than 90%) | 5 (Herbicidal ratio of 90% or more (almost completely withered)) | 4 (Herbicidal ratio of 70% or higher and lower than 90%) | 3 (Herbicidal ratio of 40% or higher and lower than 70%) | 0 (Herbicidal ratio of 5% or lower (almost no effect)) | 5 (Herbicidal ratio of 90% or more (almost completely withered)) | 4 (Herbicidal ratio of 70% or higher and lower than 90%) | 3 (Herbicidal ratio of 40% or higher and lower than 70%) | 0 (Herbicidal ratio of 5% or lower (almost no effect)) | 0 (Herbicidal ratio of 5% or lower (almost no effect)) | 0 (Herbicidal ratio of 5% or lower (almost no effect)) | 1 (Herbicidal ratio of 5% or higher and lower than 20%) | 2 (Herbicidal ratio of 20% or higher and lower than 40%) | 4 (Herbicidal ratio of 70% or higher and lower than 90%) | – | – | – | – | – | –
2 | COCCOC(=O)OC1=C(c2c(C)cc(C)cc2C)C(=O)C(CC(C)=NOC)C1 (centres unmarked) [1-147] | 1 (Herbicidal ratio of 5% or higher and lower than 20%) | 5 (Herbicidal ratio of 90% or more (almost completely withered)) | 5 (Herbicidal ratio of 90% or more (almost completely withered)) | 5 (Herbicidal ratio of 90% or more (almost completely withered)) | 5 (Herbicidal ratio of 90% or more (almost completely withered)) | 0 (Herbicidal ratio of 5% or lower (almost no effect)) | – | – | – | – | – | – | – | – | – | 5 (Herbicidal ratio of 90% or more (almost completely withered)) | 4 (Herbicidal ratio of 70% or higher and lower than 90%) | 1 (Herbicidal ratio of 5% or higher and lower than 20%) | 1 (Herbicidal ratio of 5% or higher and lower than 20%) | 4 (Herbicidal ratio of 70% or higher and lower than 90%) | c: corn, effect on crop (criteria 0-5) (corn): 5 (Herbicidal ratio of 90% or more (almost completely withered)); d: soybean, effect on crop (criteria 0-5) (soybean): 3 (Herbicidal ratio of 40% or higher and lower than 70%); f: beet, effect on crop (criteria 0-5) (beet): 3 (Herbicidal ratio of 40% or higher and lower than 70%); g: rapeseed, effect on crop (criteria 0-5) (rapeseed): 4 (Herbicidal ratio of 70% or higher and lower than 90%)
3 | CCCC(=O)CC1CC(O)=C(c2c(C)cc(C)cc2C)C1=O (centres unmarked) [2-021] | 2 (Herbicidal ratio of 20% or higher and lower than 40%) | 5 (Herbicidal ratio of 90% or more (almost completely withered)) | 3 (Herbicidal ratio of 40% or higher and lower than 70%) | – | – | – | 0 (Herbicidal ratio of 5% or lower (almost no effect)) | 0 (Herbicidal ratio of 5% or lower (almost no effect)) | 0 (Herbicidal ratio of 5% or lower (almost no effect)) | 0 (Herbicidal ratio of 5% or lower (almost no effect)) | 0 (Herbicidal ratio of 5% or lower (almost no effect)) | 3 (Herbicidal ratio of 40% or higher and lower than 70%) | 0 (Herbicidal ratio of 5% or lower (almost no effect)) | 0 (Herbicidal ratio of 5% or lower (almost no effect)) | 3 (Herbicidal ratio of 40% or higher and lower than 70%) | – | – | – | – | – | F: Digitaria ciliaris, herbicidal effect grade (Digitaria ciliaris; [4]): 5 (Herbicidal ratio of 90% or more (almost completely withered)); G: Setaria viridis, herbicidal effect grade (Setaria viridis; [4]): 5 (Herbicidal ratio of 90% or more (almost completely withered)); O: Chenopodium album, herbicidal effect grade (Chenopodium album [2]; [4]): 0 (Herbicidal ratio of 5% or lower (almost no effect))
4 | CON=C(C)CC1CC(OC(=O)N2CCN(C)CC2)=C(c2c(C)cc(C)cc2C)C1=O (centres unmarked) [1-152] | 0 (Herbicidal ratio of 5% or lower (almost no effect)) | 2 (Herbicidal ratio of 20% or higher and lower than 40%) | 5 (Herbicidal ratio of 90% or more (almost completely withered)) | 0 (Herbicidal ratio of 5% or lower (almost no effect)) | 0 (Herbicidal ratio of 5% or lower (almost no effect)) | 0 (Herbicidal ratio of 5% or lower (almost no effect)) | – | – | – | – | – | – | – | – | – | 5 (Herbicidal ratio of 90% or more (almost completely withered)) | 4 (Herbicidal ratio of 70% or higher and lower than 90%) | 3 (Herbicidal ratio of 40% or higher and lower than 70%) | 0 (Herbicidal ratio of 5% or lower (almost no effect)) | 0 (Herbicidal ratio of 5% or lower (almost no effect)) | c: corn, effect on crop (criteria 0-5) (corn): 2 (Herbicidal ratio of 20% or higher and lower than 40%); d: soybean, effect on crop (criteria 0-5) (soybean): 1 (Herbicidal ratio of 5% or higher and lower than 20%); f: beet, effect on crop (criteria 0-5) (beet): 0 (Herbicidal ratio of 5% or lower (almost no effect)); g: rapeseed, effect on crop (criteria 0-5) (rapeseed): 4 (Herbicidal ratio of 70% or higher and lower than 90%)
5 | CCC(=O)CC1CC(O)=C(c2c(C)cc(C)cc2C)C1=O (centres unmarked) [2-006] | 3 (Herbicidal ratio of 40% or higher and lower than 70%) | 5 (Herbicidal ratio of 90% or more (almost completely withered)) | – | – | – | – | 3 (Herbicidal ratio of 40% or higher and lower than 70%) | 0 (Herbicidal ratio of 5% or lower (almost no effect)) | 0 (Herbicidal ratio of 5% or lower (almost no effect)) | 0 (Herbicidal ratio of 5% or lower (almost no effect)) | 0 (Herbicidal ratio of 5% or lower (almost no effect)) | 0 (Herbicidal ratio of 5% or lower (almost no effect)) | 0 (Herbicidal ratio of 5% or lower (almost no effect)) | 0 (Herbicidal ratio of 5% or lower (almost no effect)) | 0 (Herbicidal ratio of 5% or lower (almost no effect)) | – | – | – | – | – | F: Digitaria ciliaris, herbicidal effect grade (Digitaria ciliaris; [4]): 5 (Herbicidal ratio of 90% or more (almost completely withered)); G: Setaria viridis, herbicidal effect grade (Setaria viridis; [4]): 5 (Herbicidal ratio of 90% or more (almost completely withered)); O: Chenopodium album, herbicidal effect grade (Chenopodium album [2]; [4]): 0 (Herbicidal ratio of 5% or lower (almost no effect))
